Laboratory results reported in patent publication US20050085524A1, “Pyrazolecarboxamides, intermediates therefor and pest control agent comprising the same as active ingredients” (NIHON NOHYAKU CO,. LTD., priority 2001, published 2005).

Columns and labels:
Type in all cases: in vivo
[1] = tested on: female adult Tetranychus urticae Koch; experiment: Miticidal effect on adult Tetranychus urticae Koch (Phaseolus leaf dip); conditions: leaf immersion, 25° C., five days after treatment
Procedure: The stem part of a Phaseolus seedling with one fresh first leaf remaining thereon was inserted in a test tube (a volume of 50 ml) containing water, where 15 female adult Tetranychus urticae Koch per one leaf was then inoculated. […] Five days after the treatment, the number of the female adult Tetranychus urticae Koch was counted on the Phaseolus leave, to calculate the adult death ratio (%) based on the above results. The results are shown in Table-6 (Compound Nos. in the table below correspond to Compound Nos. in Table-1).

[2] = tested on: 3rd instar Spodoptera litura larvae; experiment: Effect on larvae of Spodoptera litura (cabbage leaf dip); conditions: foliar, 120 h, cabbage leaf immersed, 25° C., five days, agonizing insect counted as 0.5 death, read-out: Insecticide Activity (%)
Procedure: Compound (III) disclosed in JP-A-64-25763 and various compounds in accordance with the present invention were individually prepared into insecticide preparations according to the formulation of Formulation Example 1. The resulting insecticides of the present invention (hydrates) were diluted with water, where chopped cabbage leave (a diameter of 6 cm) were then immersed for one minute. After immersion and subsequent drying in air, the cabbage leave were placed in a plastic cup (inner diameter of 7 cm), where five larvae each of 3rd instar Spodoptera litura were left (twice in duplicate per one concentration). The plastic cup was kept in a thermostat at 25° C. Five days after the larvae were left in the plastic cup, the death and agony of these larvae were examined, to calculate the insecticide activity (%) while an agonizing insect was counted as 0.5 insect death. The results are shown in Table 5 (in the table, Compound Nos. correspond to Compound Nos. in Table-1.)

Puccinia recondita = experiment: Fungicidal and bactericidal effect on wheat rust (spray on potted wheat seedling, then inoculation); conditions: 500 ppm, spray on wheat seedling (Norin No.61), diseased leaf area after 7 days
Procedure: Compound (III) disclosed in JP-A-64-25763 and various compounds in accordance with the present invention were individually prepared into preparations in the same manner as in Preparation 3. The resulting preparations were diluted to given concentrations and sprayed on the stems and leave of a wheat seedling (species: Norin No.61) at the one-leaf to 2-leaf stage as grown in a pot of a 6-cm diameter, at a ratio of 10-ml volume per one pot. After drying the chemical preparations in air, a spore suspension prepared by grinding the spore collected from wheat leave afflicted with Puccinia recondita as the microorganism causing wheat rust was sprayed on the wheat plant, for inoculation. Then, the plant was left to stand alone in a moist chamber at 22° C. for 15 hours. Subsequently, the plant was left to stand in a water pool in a green house for 7 days.
Evaluation was carried out by examining the ratio of the diseased area of each leaf to calculate the control ratio by the same method as in Test Example 1.
The results are shown in Table 4 (in the table, Compound Nos. correspond to Compound Nos, in Table-1.)

Erypsiphe graminis = experiment: Fungicidal and bactericidal effect on wheat powdery mildew (spray on potted wheat, then inoculation); conditions: 500 ppm, spray on wheat (Norin No.61), diseased leaf area after 7 to 10 days
Procedure: Compound (III) disclosed in JP-A-64-25763, tebufenpyrade and various compounds in accordance with the present invention were individually prepared into preparations in the same manner as in Formulation 3 The resulting preparations were diluted to given concentrations and sprayed on the stems and leave of a wheat plant (species: Norin No.61) at the one-leaf to 2-leaf stage as grown in a pot of a 6-cm diameter, at a ratio of 10-ml volume per one pot. After drying the chemical preparations in air, the wheat plant was exposed to the spore collected from wheat leave afflicted with Erypsiphe graminis as the microorganism causing wheat powdery mildew, for inoculation. Then, the plant was left to stand alone in a green house for 7 to 10 days.
Evaluation was carried out follows. The ratio of the diseased area of each leaf was examined to calculate the control ratio according to the following formula. The results are shown in Table 3 (in the table, Compound Nos. correspond to Compound Nos. in Table-1.) • Control ratio (%) • =[(mean ratio of diseased areas in non-treated lot) • −(mean ratio of diseased areas in treated lot)]× • ×100
/ (mean ratio of diseased areas in non-treated lot)

| Structure (SMILES) | Adult death ratio (%) ([1]; 500 ppm) | Control Ratio (%) (Puccinia recondita) | Control Ratio (%) (Erypsiphe graminis) | other results |
| --- | --- | --- | --- | --- |
| CCCCCc1ccc(-c2ccc(CNC(=O)c3cc(CC)nn3C)cc2)cc1 [Compound No. 11] | 100 | – | – | – |
| Cc1nn(C)c(C(=O)NC(C)c2ccc(-c3ccccc3)cc2)c1Br (stereo not shown) [Compound (III)] | 15 | 0 | 0 | inhibition at 500 ppm [2]: 20% |
| CCCCCCCc1ccc(-c2ccc(CNC(=O)c3cc(CC)nn3C)cc2)cc1 [compound 13] | – | – | 100 | – |
| Cn1nc2c(c1C(=O)NCc1ccc(-c3ccc(OC(F)(F)F)cc3)cc1)CCCC2 [compound 106] | 100 | – | – | – |
| CCc1cc(C(=O)NCc2ccc(-c3ccc(OC(C)C)cc3)cc2)n(C)n1 [compound 25] | – | 100 | 100 | – |
| CCc1cc(C(=O)NCc2ccc(-c3ccc(OC(F)F)cc3)cc2)n(C)n1 [Compound No. 30, N-[4-(4-Difluoromethoxyphenyl)benzyl]-1-methyl-3-ethylpyrazole-5-carboxamide] | 100 | 100 | 100 | – |
| CCc1nn(C)c(C(=O)NCc2ccc(C(C)(C)C)cc2)c1Cl [tebufenpyrade] | – | – | 77 | Adult death ratio (%) ([1]; 0.8 ppm): 0%; Adult death ratio (%) ([1]; 3.1 ppm): 80%; Adult death ratio (%) ([1]; 12.5 ppm): 100% |
